This experiment addresses T1, cDNA-expressed human hepatic CYP3A4 (Homo sapiens, UniProt P08684).
T1 construct: purchased BD Gentest 456202
The experiment is described as follows: P450 CYP3A4 inhibitory activity screening (BFC substrate, fluorescence). The class given is biochemical. The note with it: P450 CYP3A4 inhibitory activity screening, fluorescent assay; read-out: CYP3A4 inhibition, IC50 (μM) fluorescent assay. Here is the method: P450 CYP3A4 Inhibitory Activity Screening
Assay was conducted in a 200 μL volume in 96-well microtiter plates using cDNA-expressed human hepatic CYP3A4 (supersome, BD Gentest™ #456202). 7-Benzyloxy-4-trifluoromethyl-coumarin (BFC) was used as a substrate for CYP3A4. Test articles and substrate BFC were dissolved in 100% acetonitrile. The final volume of acetonitrile in the incubation mixture was less than 1% (volume/volume). Potassium phosphate buffer (pH 7.4, final concentration 0.1 M), MgCl2 (final concentration 8.3 mM), EDTA (final concentration 1.67 mM), a test article stock solution, a CYP3A4 supersome and NADPH (final concentration 0.25 mM) were added to each well. The reaction was initiated by the addition of substrate (BFC, final concentration 30 µM) after a 10 min pre-incubation at 37° C. After 10 min incubation at 37° C., the reaction was terminated by the addition of 75 μL of acetonitrile:0.5 M Tris-base=4:1 (volume/volume). Thereafter, Fluorescent signal was measured using a fluorometer. BFC metabolite, 7-hydroxy-4-trifluoromethyl-coumarin, was measured using an excitation wavelength of 409 nm and an emission wavelength of 530 nm.

Some results are limits rather than exact numbers.

T1 sequence (P08684 whole entry): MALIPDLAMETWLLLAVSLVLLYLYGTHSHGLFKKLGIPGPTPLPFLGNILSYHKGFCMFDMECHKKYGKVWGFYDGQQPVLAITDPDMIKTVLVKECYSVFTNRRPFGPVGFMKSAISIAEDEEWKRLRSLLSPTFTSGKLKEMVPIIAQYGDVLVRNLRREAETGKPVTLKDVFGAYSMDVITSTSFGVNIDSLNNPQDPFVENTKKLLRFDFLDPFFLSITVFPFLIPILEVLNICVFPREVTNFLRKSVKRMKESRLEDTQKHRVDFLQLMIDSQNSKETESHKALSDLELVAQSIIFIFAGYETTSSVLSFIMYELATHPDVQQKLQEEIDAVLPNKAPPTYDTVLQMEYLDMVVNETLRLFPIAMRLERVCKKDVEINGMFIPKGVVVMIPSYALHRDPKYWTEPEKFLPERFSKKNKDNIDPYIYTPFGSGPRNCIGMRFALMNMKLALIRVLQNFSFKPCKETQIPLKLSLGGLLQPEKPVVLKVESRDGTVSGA

Consider `C=CCN1CC(=O)N2[C@@H](Cc3ccc(O)cc3)C(=O)N(Cc3cccc(C(=O)N4CCCC4)c3)C[C@@H]2N1C(=O)NCc1ccccc1` [compound 1], for which the IC50 was 5 µM.

Consider `C=CCN1CC(=O)N2[C@@H](Cc3ccc(O)cc3)C(=O)N(Cc3cccc(N(C)C=O)c3)C[C@@H]2N1C(=O)NCc1ccccc1` [compound 2], for which the IC50 came out at 5.23 µM.

For `C=CCN1CC(=O)N2[C@@H](Cc3ccc(O)cc3)C(=O)N(Cc3cccnc3Br)C[C@@H]2N1C(=O)NCc1ccccc1` [compound 3], the IC50 came out at 5.33 µM.

As for `C=CCN1CC(=O)N2[C@@H](Cc3ccc(O)cc3)C(=O)N(Cc3cccc4c3ncn4CC#N)C[C@@H]2N1C(=O)NCc1ccccc1` [compound 4], the IC50 came out at 5.4 µM.

In the case of `C=CCN1CC(=O)N2[C@@H](Cc3ccc(O)cc3)C(=O)N(Cc3cccc(-c4ccc(S(C)(=O)=O)cc4)n3)C[C@@H]2N1C(=O)NCc1ccccc1` [compound 6], the IC50 was 6.78 µM.

On to `C=CCN1CC(=O)N2[C@@H](Cc3ccc(O)cc3)C(=O)N(Cc3cccnc3N3CCC(N4CCCC4)CC3)C[C@@H]2N1C(=O)NCc1ccccc1` [compound 7], for which the IC50 was found to be 6.84 µM.

With `C=CCN1CC(=O)N2[C@@H](Cc3ccc(O)cc3)C(=O)N(Cc3cccc4c(=O)ccoc34)C[C@@H]2N1C(=O)NCc1ccccc1` [compound 9], the IC50 was 6.95 µM.

In the case of `C=CCN1CC(=O)N2[C@@H](Cc3ccc(O)cc3)C(=O)N(Cc3cccc(-c4ccc[nH]c4=O)c3)C[C@@H]2N1C(=O)NCc1ccccc1` [compound 10], the IC50 was 7.02 µM.

Regarding `C=CCN1CC(=O)N2[C@@H](Cc3ccc(O)cc3)C(=O)N(Cc3cccc(C(=O)OC)c3)C[C@@H]2N1C(=O)NCc1ccccc1` [compound 11], the IC50 stood at 7.58 µM.

As for `C=CCN1CC(=O)N2[C@@H](Cc3ccc(O)cc3)C(=O)N(Cc3cccc(C(=O)NCC4CC4)c3)C[C@@H]2N1C(=O)NCc1ccccc1` [compound 12], the IC50 was 7.65 µM.

Take `C=CCN1CC(=O)N2[C@@H](Cc3ccc(O)cc3)C(=O)N(Cc3cccc(C(=O)NC)c3)C[C@@H]2N1C(=O)NCc1ccccc1` [compound 13]: the IC50 was 8 µM.

For `C=CCN1CC(=O)N2[C@@H](Cc3ccc(O)cc3)C(=O)N(Cc3cccc4c3ncn4CCC)C[C@@H]2N1C(=O)NCc1ccccc1` [compound 14], the IC50 was 8.42 µM.

As for `C=CCN1CC(=O)N2[C@@H](Cc3ccc(O)cc3)C(=O)N(Cc3cccc(C(C)=O)c3)C[C@@H]2N1C(=O)NCc1ccccc1` [compound 15], the IC50 was determined as 8.79 µM.

For the molecule `C=CCN1CC(=O)N2[C@@H](Cc3ccc(OS(N)(=O)=O)cc3)C(=O)N(Cc3cccc(N4CCCC4=O)c3)C[C@@H]2N1C(=O)NCc1ccccc1` [compound 16], the IC50 was 9 µM.

Consider `C=CCN1CC(=O)N2[C@@H](Cc3ccc(O)cc3)C(=O)N(Cc3cccc(C(=O)NCC4CCCO4)c3)C[C@@H]2N1C(=O)NCc1ccccc1` (stereo partly shown) [compound 17], for which the IC50 was 9.02 µM.

In the case of `C=CCN1CC(=O)N2[C@@H](Cc3ccc(O)cc3)C(=O)N(Cc3cccc(NS(C)(=O)=O)c3)C[C@@H]2N1C(=O)NCc1ccccc1` [compound 18], the IC50 came to 9.16 µM.

Take `C=CCN1CC(=O)N2[C@@H](Cc3ccc(O)cc3)C(=O)N(Cc3cccc(C#N)c3)C[C@@H]2N1C(=O)NCc1ccccc1` [compound 19]: the IC50 was 9.65 µM.

With `C=CCN1CC(=O)N2[C@@H](Cc3ccc(O)cc3)C(=O)N(Cc3cccc(C(=O)N4CCOCC4)c3)C[C@@H]2N1C(=O)NCc1ccccc1` [compound 20], the IC50 is 10.1 µM.

Consider `C=CCN1CC(=O)N2[C@@H](Cc3ccc(O)cc3)C(=O)N(Cc3cccc(N(C)C(=O)OC)c3)C[C@@H]2N1C(=O)NCc1ccccc1` [compound 21], for which the IC50 is 10.2 µM.

Consider `C=CCN1CC(=O)N2[C@@H](Cc3ccc(O)cc3)C(=O)N(Cc3cccc(C(=O)N(C)C)c3)C[C@@H]2N1C(=O)NCc1ccccc1` [compound 22], for which the IC50 was found to be 11.6 µM.

Regarding `C=CCN1CC(=O)N2[C@@H](Cc3ccc(OS(N)(=O)=O)cc3)C(=O)N(Cc3cccc4c3ncn4C)C[C@@H]2N1C(=O)NCc1ccccn1` [compound 23], the IC50 was 12 µM.

In the case of `C=CCN1CC(=O)N2[C@@H](Cc3ccc(O)cc3)C(=O)N(Cc3cccc(-c4cccc(C(=O)O)c4)c3)C[C@@H]2N1C(=O)NCc1ccccc1` [compound 24], the IC50 was determined as 12.9 µM.

For `C=CCN1CC(=O)N2[C@@H](Cc3ccc(O)cc3)C(=O)N(Cc3cccc(C(=O)NC)n3)C[C@@H]2N1C(=O)NCc1ccccc1` [compound 25], the IC50 stood at 13.1 µM.

Take `C=CCN1CC(=O)N2[C@@H](Cc3ccc(O)cc3)C(=O)N(Cc3ccccc3-n3cnnn3)C[C@@H]2N1C(=O)NCc1ccccc1` [compound 26]: the IC50 is 13.5 µM.

Consider `C=CCN1CC(=O)N2[C@@H](Cc3ccc(O)cc3)C(=O)N(Cc3cccc(NC(=O)NC(N)=O)c3)C[C@@H]2N1C(=O)NCc1ccccc1` [compound 27], for which the IC50 worked out at 16.8 µM.

In the case of `C=CCN1CC(=O)N2[C@@H](Cc3ccc(O)cc3)C(=O)N(Cc3cccc(NC(C)=O)c3)C[C@@H]2N1C(=O)NCc1ccccc1` [compound 28], the IC50 worked out at 17.9 µM.

Regarding `C#CCN1C[C@H]2N(C(=O)CN(CC=C)N2C(=O)NCc2ccccc2)[C@@H](Cc2ccc(O)cc2)C1=O` [compound 29], the IC50 was 18.1 µM.

For the molecule `C=CCN1CC(=O)N2C(CN(Cc3ccccc3S(C)(=O)=O)C(=O)[C@@H]2Cc2ccc(O)cc2)N1C(=O)NCc1ccccc1` (stereo partly shown) [compound 30], the IC50 came to 18.7 µM.

Take `C=CCN1CC(=O)N2[C@@H](Cc3ccc(O)cc3)C(=O)N(Cc3cccc(C(=O)OCC)n3)C[C@@H]2N1C(=O)NCc1ccccc1` [compound 31]: the IC50 came to 18.9 µM.

Take `C=CCN1CC(=O)N2[C@@H](Cc3ccc(O)cc3)C(=O)N(Cc3cccc(C(=O)NCCOC)n3)C[C@@H]2N1C(=O)NCc1ccccc1` [compound 32]: the IC50 worked out at 19.9 µM.

Regarding `C=CCN1CC(=O)N2[C@@H](Cc3ccc(O)cc3)C(=O)N(Cc3cccc(NC(=O)OC)c3)C[C@@H]2N1C(=O)NCc1ccccc1` [compound 33], the IC50 was 24.2 µM.

For the molecule `C=CCN1CC(=O)N2[C@@H](Cc3ccc(O)cc3)C(=O)N(Cc3ccccc3S(C)(=O)=O)C[C@@H]2N1C(=O)NCc1ccccn1` [compound 34], the IC50 was 24.5 µM.

In the case of `C=CCN1CC(=O)N2[C@@H](Cc3ccc(OS(N)(=O)=O)cc3)C(=O)N(Cc3cccc(C(=O)NC)n3)C[C@@H]2N1C(=O)NCc1ccccc1` [compound 35], the IC50 stood at 26.4 µM.

Regarding `C=CCN1CC(=O)N2[C@@H](Cc3ccc(O)cc3)C(=O)N(Cc3cccc(NC(N)=O)c3)C[C@@H]2N1C(=O)NCc1ccccc1` [compound 37], the IC50 worked out at 34.3 µM.

As for `C=CCN1CC(=O)N2[C@@H](Cc3ccc(O)cc3)C(=O)N(Cc3cccc(C(=O)N(C)C)n3)C[C@@H]2N1C(=O)NCc1ccccc1` [compound 39], the IC50 was 35.3 µM.

Turning to `CN1CC(=O)N2[C@@H](Cc3ccc(O)cc3)C(=O)N(Cc3cccc4c3ncn4C)C[C@@H]2N1C(=O)NCc1ccccc1` [compound 40], the concentration for half-maximal inhibition (IC50) came out at 39.1 µM.

Take `C=CCN1CC(=O)N2[C@@H](Cc3ccc(O)cc3)C(=O)N(Cc3cccc(C(=O)NOC)c3)C[C@@H]2N1C(=O)NCc1ccccc1` [compound 41]: the 50% inhibitory concentration (IC50) was 41.4 µM.

Regarding `C=CCN1CC(=O)N2[C@@H](Cc3ccc(O)cc3)C(=O)N(Cc3cccc(C(=O)NCCO)c3)C[C@@H]2N1C(=O)NCc1ccccc1` [compound 42], the IC50 came to 44.1 µM.

Turning to `C=CCN1CC(=O)N2[C@@H](Cc3ccc(O)cc3)C(=O)N(Cc3cccc(C(N)=O)c3[N+](=O)[O-])C[C@@H]2N1C(=O)NCc1ccccc1` [compound 43], the IC50 is 44.4 µM.

For `C=CCN1CC(=O)N2[C@@H](Cc3ccc(O)cc3)C(=O)N(Cc3ccnc(C(N)=O)c3)C[C@@H]2N1C(=O)NCc1ccccc1` [compound 44], the IC50 amounted to 45.1 µM.

Turning to `C=CCN1CC(=O)N2[C@@H](Cc3ccc(O)cc3)C(=O)N(Cc3cccc4c3nc(C(F)(F)F)n4C)C[C@@H]2N1C(=O)NCc1ccccc1` [compound 45], the IC50 is over 10 µM.

With `C=CCN1CC(=O)N2[C@@H](Cc3ccc(O)cc3)C(=O)N(Cc3cccc(N4CCCC4=O)c3)C[C@@H]2N1C(=O)NCc1ccccn1` [compound 46], the IC50 is over 50 µM.

As for `C=CCN1CC(=O)N2[C@@H](Cc3ccc(O)cc3)C(=O)N(Cc3cccc4c3ncn4C)C[C@@H]2N1C(=O)NCc1ccccn1` [compound 47], the IC50 was over 50 µM.

Turning to `C=CCN1CC(=O)N2[C@@H](Cc3ccccc3)C(=O)N(Cc3cccc(C(=O)O)c3)C[C@@H]2N1C(=O)NCc1ccccc1` [compound 48], the half-inhibitory concentration (IC50) is over 50 µM.

On to `O=C(O)c1cccc(CN2C[C@H]3N(C(=O)CN(Cc4ccccc4)N3C(=O)NCc3ccccc3)[C@@H](Cc3ccc(O)cc3)C2=O)c1` [compound 49], for which the IC50 was over 50 µM.

As to `C=CCN1CC(=O)N2[C@@H](Cc3ccc(O)cc3)C(=O)N(Cc3cccc(C(=O)O)c3)C[C@@H]2N1C(=O)NCc1ccc(Cl)cc1Cl` [compound 50], the IC50 is over 50 µM.

As to `C=CCN1CC(=O)N2[C@@H](Cc3ccc(O)cc3)C(=O)N(Cc3cccc(C(=O)N[C@@H](CCC(=O)O)C(=O)O)c3)C[C@@H]2N1C(=O)NCc1ccccc1` [compound 51], the half-inhibitory concentration (IC50) was over 50 µM.

With `C=CCN1CC(=O)N2[C@@H](Cc3ccc(O)cc3)C(=O)N(Cc3cccc(C(N)=O)n3)C[C@@H]2N1C(=O)NCc1ccccc1` [compound 52], the IC50 is over 50 µM.

Turning to `C=CCN1CC(=O)N2[C@@H](Cc3ccc(O)cc3)C(=O)N(Cc3cccc(C(N)=O)c3)C[C@@H]2N1C(=O)NCc1ccccc1` [compound 53], the IC50 was over 50 µM.

(Values after patent US8080657B2, “Compounds of reverse turn mimetics and the use thereof” (Choongwae Pharma Corporation, priority 2008, dated 2011).)
